Reference: US10842845B2, “Oxytocin improves treatment of obstructive sleep apnea” (THE GEORGE WASHINGTON UNIVERSITY, priority 2014, dated 2020)

Tested on: DREADDs-expressing PVN OXT neurons
Experiment: Whole-cell patch clamp of DREADDs-expressing PVN OXT neurons, CNO application
Format: cell-based, rat
Description: CVNs in NA and DMNX were identified by the presence of fluorescent tracer rhodamine and imaged using differential interference contrast optics and infrared illumination. Whole cell voltage clamp recordings from CVNs were done using Axopatch 200B and pClamp 8 software (Axon Instruments, Union city, USA), at a holding voltage of −80 mV at room temperature. The patch pipettes (2.5-5 MΩ) were filled with a solution consisting (in mM) of KCl (150), MgCl2 (4), EGTA (10), Na-ATP (2) and HEPES (10) or K-gluconic acid (150), HEPES (10), EGTA (10), MgCl2 (1) and CaCl2 (1) at a pH of 7.3 for recording inhibitory or excitatory events respectively. For PVN studies, forebrain slices were used for electrophysiology recordings.
A rat minimal oxytocin (OXT) promoter element from ˜530 bp to +33 relative to the origin of transcription of the OXT gene (UCSC genome browser on rat November 2004 assembly; chr3:118,193,690 to 118,194,252) was synthesized de novo and flanked by multiple cloning sites (Genscript, Piscataway, N.J.) (McCann et al., 2002; Petersson et al., 1996). […] Expression of these Cre-dependent vectors will only be initiated in neurons selectively expressing Cre as they contain silencing double-foxed inverse open reading frames (Sawchenko and Swanson, 1982). […]

## C[N+]1([O-])CCN(C2=Nc3cc(Cl)ccc3Nc3ccccc32)CC1 [CNO, clozapine-n-oxide]
Before CNO vs post CNO, 7 neurons
  firing of PVN OXT neurons expressing DREADDs with CNO application (in words): significantly increases
Within 5 min of CNO application, from 0.19±0.05 Hz before CNO, n=7
  action potential firing frequency of DREADDs-expressing PVN neurons after CNO application: 0.75±0.14 Hz
